# Laboratory results taken from patent US20070048372A1, “Method for treating non-inflammatory osteoarthritic pain” (SRZ Properties, Inc., priority 2005, published 2007).
# Tests used:
# [1] = system: monosodium iodoacetate-induced tactile allodynia; test: Monosodium iodoacetate-induced tactile allodynia (von Frey filaments); format: in vivo, rat (Wistar); details: 3 mg/kg s.c., 60 minutes before test
# [2] = system: monosodium iodoacetate-induced mechanical hyperalgesia; test: Monosodium iodoacetate-induced mechanical hyperalgesia (Randall-Selitto paw pressure); format: in vivo, rat (Wistar); details: 3 mg/kg s.c.
# [3] = system: rat formalin paw test (late phase); test: Rat formalin paw test (late phase): number of flinches and licking time; format: in vivo, rat (Rj: Wistar (Han))
# Method: Rats were given an intraplantar injection of 5% formalin (50 μl) into the posterior left paw. This treatment induces a recognizable flinching and licking response of the affected paw in control animals. The number of flinches was counted for 15 minutes, beginning 20 minutes after injection of formalin. The time spent licking the affected paw was also recorded.
# Male Rj: Wistar (Han) rats, 10 per group, weighing 100-130 g at the beginning of the experiments were studied per group. The test was performed blind.
# Lacosamide (20 mg/kg), gabapentin (50 and 100 mg/kg), combinations of lacosamide (20 mg/kg) with gabapentin (50 and 100 mg/kg), and vehicle were administered i.p. 10 minutes before injection of formalin.
# Lacosamide (10 and 20 mg/kg), morphine (2 and 4 mg/kg), combinations of lacosamide (10 and 20 mg/kg) with morphine (2 and 4 mg/kg), and vehicle were administered i.p. 10 minutes before injection of formalin.
# Lacosamide (10 mg/kg), duloxetine (8 mg/kg), a combination of lacosamide (10 mg/kg) with duloxetine (8 mg/kg), and vehicle were administered i.p. 10 minutes before injection of formalin.
# Lacosamide (10 and 20 mg/kg), memantine (4 and 8 mg/kg), combinations of lacosamide (10 and 20 mg/kg) with memantine (4 and 8 mg/kg), and vehicle were administered i.p. 10 minutes before injection of formalin.
# Lacosamide (10 and 20 mg/kg), naproxen (8 and 16 mg/kg), combinations of lacosamide (10 and 20 mg/kg) with […] (8 and 16 mg/kg), and vehicle were administered i.p. 10 minutes before injection of formalin. Morphine (8 mg/kg) was included as a comparative treatment.
# [4] = Example 4, 2 and 4 mg/kg i.p. alone, did not reach statistical significance
smiles,measurement,setting,value
CN1CC[C@]23c4c5ccc(O)c4O[C@H]2[C@@H](O)C=C[C@H]3[C@H]1C5 [Morphine],tactile allodynia of iodoacetate-treated rats (von Frey),[1]; day 3,improved tactile allodynia
same,tactile allodynia of iodoacetate-treated rats (von Frey),[1]; day 7,improved tactile allodynia
same,tactile allodynia of iodoacetate-treated rats (von Frey),[1]; day 14,not on day 14
same,paw pressure withdrawal threshold compared to iodoacetate/vehicle treated animals (mechanical hyperalgesia),[2]; day 3,increase in paw pressure withdrawal threshold
same,mechanical hyperalgesia (paw pressure withdrawal threshold),[2]; day 7,reduced mechanical hyperalgesia
same,Licking time % change (a) compared with vehicle control,"[3]; Example 4, 2 mg/kg i.p. alone",−1% (a)
same,Licking time (seconds) mean ± SEM,"[3]; Example 4, 2 mg/kg i.p. alone",289.3 ± 30.7 NS (a) seconds
same,No. of flinches % change (a) compared with vehicle control,"[3]; Example 4, 2 mg/kg i.p. alone",−7% (a)
same,No. of flinches mean ± SEM,"[3]; Example 4, 2 mg/kg i.p. alone",139.5 ± 25.3 NS (a)
same,Licking time % change (a) compared with vehicle control,"[3]; Example 4, 4 mg/kg i.p. alone",−20% (a)
same,Licking time (seconds) mean ± SEM,"[3]; Example 4, 4 mg/kg i.p. alone",234.9 ± 37.3 NS (a) seconds
same,No. of flinches % change (a) compared with vehicle control,"[3]; Example 4, 4 mg/kg i.p. alone",−37% (a)
same,No. of flinches mean ± SEM,"[3]; Example 4, 4 mg/kg i.p. alone",94.3 ± 21.1 NS (a)
same,effect on the number of flinches as compared with vehicle controls,[3]; [4],dose-dependently decreased
same,effect on the time spent licking as compared with vehicle controls,[3]; [4],dose-dependently decreased
same,Licking time % change (a) compared with vehicle control,"[3]; Example 7, 8 mg/kg i.p. alone",−100% (a)
same,Licking time (seconds) mean ± SEM,"[3]; Example 7, 8 mg/kg i.p. alone",0.0 ± 0.0 (a) seconds
same,No. of flinches % change (a) compared with vehicle control,"[3]; Example 7, 8 mg/kg i.p. alone",−100% (a)
same,No. of flinches mean ± SEM,"[3]; Example 7, 8 mg/kg i.p. alone",0.2 ± 0.1 (a)
same,effect on flinching and the time spent licking as compared with vehicle controls,"[3]; Example 7, 8 mg/kg i.p. alone",eliminated flinching and the time spent licking
